Data from ChEMBL document CHEMBL2311440, “Inhibitors of HIV-1 attachment. Part 8: the effect of C7-heteroaryl substitution on the potency, and in vitro and in vivo profiles of indole-based inhibitors” (Bioorg Med Chem Lett, 2013).

Tests used:
[1] = Permeability across human Caco2 cells at pH 6.5; type: ADME, cell-based; conditions: Caco-2, pH 6.5, read-out: permeability
[2] = Half life in human liver microsomes; type: ADME, Microsome
[3] = Half life in rat at 1 mg/kg, iv; type: ADME, organism-based; design: dose 1 mg/kg, route intravenous; conditions: in vivo
[4] = Clearance in rat at 1 mg/kg, iv; type: ADME, organism-based; design: dose 1 mg/kg, route intravenous; conditions: in vivo
[5] = Cmax in rat at 5 mg/kg, po; type: ADME, organism-based; design: dose 5 mg/kg, route oral; conditions: in vivo
[6] = Oral bioavailability in rat at 5 mg/kg; type: ADME, organism-based; conditions: in vivo
[7] = system: Human immunodeficiency virus 1; experiment: Antiviral activity against T-tropic HIV1 NL4-3 virus by cell culture based assay; type: functional, organism-based; conditions: Human immunodeficiency virus 1, NL4-3
[8] = system: Human immunodeficiency virus 1; experiment: Antiviral activity against M-tropic HIV1 Bal virus by cell culture based assay; type: functional, organism-based; conditions: Human immunodeficiency virus 1, Bal
[9] = Antiviral activity against T-tropic HIV1 BRU virus by cell culture based assay; type: functional, Human immunodeficiency virus type 1 (BRU ISOLATE); conditions: Human immunodeficiency virus 1
[10] = Safety index, ratio fo CC50 for human HeLa CD4+ CCR5+ cells to EC50 for HIV1 JRFL; type: toxicity; conditions: read-out: Ratio CC50/EC50
[11] = Cytotoxicity against human HeLa CD4+ CCR5+ cells after 6 days by XTT assay; type: cell-based
[12] = system: Human immunodeficiency virus 1; experiment: Antiviral activity against HIV1 JRFL pseudotyped virus infected in HeLa CD4+ CCR5+ cells by single-cycle viral infectivity assay; type: functional, organism-based; conditions: Human immunodeficiency virus 1, JRFL

Papp [1] [×10⁻⁶ cm/s] | half-life [2] [min] | EC50 [12] [nM] | SMILES | CC50 at 144 h [11] [µM] | also measured
> 30 | 17 | 0.05 | O=C(C(=O)N1CCN(C(=O)c2ccccc2)CC1)c1c[nH]c2c(-c3ncon3)ccc(F)c12 | 74 | half-life [3]: 120 min; clearance [4]: 3.9 mL/min/kg; Cmax [5]: 2610 ng/mL; bioavailability [6]: 89%; EC50 [7]: 8.66 nM; EC50 [8]: 7.61 nM; EC50 [9]: 3.38 nM; selectivity ratio [10]: 1500
– | – | 0.06 | O=C(C(=O)N1CCN(C(=O)c2ccccc2)CC1)c1c[nH]c2c(-c3cccnc3)ccc(F)c12 | 10 | –
– | – | 0.0067 | O=C(C(=O)N1CCN(C(=O)c2ccccc2)CC1)c1c[nH]c2c(-c3nccs3)ccc(F)c12 | 23 | –
– | – | 0.06 | Cc1nc(-c2ccc(F)c3c(C(=O)C(=O)N4CCN(C(=O)c5ccccc5)CC4)c[nH]c23)no1 | 226 | –
– | – | 3.55 | COc1nc(-c2ccc(F)c3c(C(=O)C(=O)N4CCN(C(=O)c5ccccc5)CC4)c[nH]c23)no1 | 44 | –
– | – | 0.53 | O=C(C(=O)N1CCN(C(=O)c2ccccc2)CC1)c1c[nH]c2c(-c3nc4ccccc4[nH]3)ccc(F)c12 | 11 | –
– | – | 0.04 | COc1ccc(-c2ccc(F)c3c(C(=O)C(=O)N4CCN(C(=O)c5ccccc5)CC4)c[nH]c23)cc1 | 21 | –
– | 10 | 0.05 | O=C(C(=O)N1CCN(C(=O)c2ccccc2)CC1)c1c[nH]c2c(-c3nnco3)ccc(F)c12 | > 300 | –
8.9 | 25 | 0.16 | Cc1nnc(-c2ccc(F)c3c(C(=O)C(=O)N4CCN(C(=O)c5ccccc5)CC4)c[nH]c23)[nH]1 | 159 | –
– | – | 0.1 | NC(=O)c1nc(-c2ccc(F)c3c(C(=O)C(=O)N4CCN(C(=O)c5ccccc5)CC4)c[nH]c23)no1 | 154 | –
12.2 | 2.9 | 0.0054 | O=C(C(=O)N1CCN(C(=O)c2ccccc2)CC1)c1c[nH]c2c(-c3cnco3)ccc(F)c12 | > 300 | half-life [3]: 65 min; clearance [4]: 17 mL/min/kg; Cmax [5]: 444 ng/mL; bioavailability [6]: 47%
3.7 | 16 | 0.06 | O=C(C(=O)N1CCN(C(=O)c2ccccc2)CC1)c1c[nH]c2c(-c3cnc[nH]3)ccc(F)c12 | > 300 | –
– | – | 0.3 | CN(C)c1nc(-c2ccc(F)c3c(C(=O)C(=O)N4CCN(C(=O)c5ccccc5)CC4)c[nH]c23)no1 | 23 | –
– | – | 0.1 | CC(=O)Nc1nc(-c2ccc(F)c3c(C(=O)C(=O)N4CCN(C(=O)c5ccccc5)CC4)c[nH]c23)no1 | 229 | –
6.9 | 17 | 0.0082 | Nc1nc(-c2ccc(F)c3c(C(=O)C(=O)N4CCN(C(=O)c5ccccc5)CC4)c[nH]c23)no1 | 43 | –
– | – | 0.05 | O=C(C(=O)N1CCN(C(=O)c2ccccc2)CC1)c1c[nH]c2c(-c3ncco3)ccc(F)c12 | 192 | –
– | – | 0.04 | CNc1nc(-c2ccc(F)c3c(C(=O)C(=O)N4CCN(C(=O)c5ccccc5)CC4)c[nH]c23)no1 | 26 | –
– | – | 0.43 | O=C(C(=O)N1CCN(C(=O)c2ccccc2)CC1)c1c[nH]c2c(-c3ccccc3)ccc(F)c12 | 6.8 | –
14.8 | 16 | 0.16 | COc1ccc(-c2ncon2)c2[nH]cc(C(=O)C(=O)N3CCN(C(=O)c4ccccc4)CC3)c12 | 22 | –
– | – | 0.04 | C[C@@H]1CN(C(=O)c2ccccc2)CCN1C(=O)C(=O)c1c[nH]c2c(-c3ncon3)ccc(F)c12 | 125 | –
1.9 | 32 | 0.03 | O=C(C(=O)N1CCN(C(=O)c2ccccc2)CC1)c1c[nH]c2c(-c3nnc[nH]3)ccc(F)c12 | 199 | half-life [3]: 187 min; clearance [4]: 3.7 mL/min/kg; Cmax [5]: 369 ng/mL; bioavailability [6]: 14%
< 1.5 | > 100 | 0.07 | C[C@@H]1CN(C(=O)c2ccccc2)CCN1C(=O)C(=O)c1c[nH]c2c(-c3nn[nH]n3)ccc(F)c12 | > 300 | –
1.7 | > 200 | 0.08 | O=C(C(=O)N1CCN(C(=O)c2ccccc2)CC1)c1c[nH]c2c(-c3nn[nH]n3)ccc(F)c12 | 245 | half-life [3]: 67 min; clearance [4]: 3.1 mL/min/kg; Cmax [5]: 95 ng/mL; bioavailability [6]: 2.3%; EC50 [7]: 9.41 nM; EC50 [8]: 0.37 nM; EC50 [9]: 6.38 nM
– | – | 153 | O=C(C(=O)N1CCN(C(=O)c2ccccc2)CC1)c1c[nH]c2ccccc12 | 275 | –
– | – | 0.094 | Cc1noc(-c2ccc(F)c3c(C(=O)C(=O)N4CCN(C(=O)c5ccccc5)CC4)c[nH]c23)n1 | > 300 | –
– | – | 0.06 | O=C(C(=O)N1CCN(C(=O)c2ccccc2)CC1)c1c[nH]c2c(-c3cccs3)ccc(F)c12 | 5.3 | –
– | > 100 | 1.24 | O=C(C(=O)N1CCN(C(=O)c2ccccc2)CC1)c1c[nH]c2cccc(F)c12 | > 300 | EC50 [7]: 1500 nM; EC50 [8]: 700 nM; EC50 [9]: 90 nM
– | – | 0.01 | O=C(C(=O)N1CCN(C(=O)c2ccccc2)CC1)c1c[nH]c2c(-c3ccsc3)ccc(F)c12 | 27 | –
– | – | 0.88 | O=C(C(=O)N1CCN(C(=O)c2ccccc2)CC1)c1c[nH]c2c(-c3nc4ccccc4o3)ccc(F)c12 | 27 | –
– | – | 0.12 | O=C(C(=O)N1CCN(C(=O)c2ccccc2)CC1)c1c[nH]c2c(-c3ccccn3)ccc(F)c12 | 17 | –
